From patent publication US12319655B2, “RAF kinase inhibitors and methods of use thereof” (Deciphera Pharmaceuticals, LLC, priority 2021, dated 2025)

Tested on: WM3629 cells
Assay: WM3629 Cell Proliferation Assay (1)
Assay type: cell-based
Settings: not given

| Compound | IC50 [nM] |
| --- | --- |
| CNC(=O)c1cc(-c2cc(-c3cc(NC(=O)c4cccc(C(F)(F)F)c4)cnc3C)ccn2)ccn1 [Example 52] | ≤ 100 |
| CCOc1ncc(-c2cc(NC(=O)c3ccnc(C(F)(F)F)c3)ccc2C)cc1-c1ccnc(C(=O)NC)c1 [Example 69] | ≤ 100 |
| Cc1ccc(NC(=O)c2ccnc(C(C)(C)C#N)c2)cc1-c1cccc(-c2cc(NC(=O)C3CC3)ncn2)c1 [Example 77] | ≤ 100 |
| Cc1ccc(NC(=O)c2ccnc(C(F)(F)F)c2)cc1-c1cccc(-c2cc(NC(=O)C3CC3)ncn2)c1 [Example 80] | ≤ 100 |
| Cc1ccc(NC(=O)c2ccnc(C(C)(C)F)c2)cc1-c1cncc(-c2cc(NC(=O)C3CC3)ncn2)c1 [Example 394] | ≤ 100 |
| Cc1ccc(NC(=O)c2ccnc(C3(C#N)CC3)c2)cc1-c1cncc(-c2cc(NC(=O)C3CC3)ncn2)c1 [Example 395] | ≤ 100 |
| Cc1ccc(NC(=O)c2ccnc(C(F)(F)F)c2)cc1-c1cncc(-c2cc(NC(=O)C3CC3)ncn2)c1 [Example 397] | ≤ 100 |

Tested on: Miapaca-2 cells
Assay: MiaPaca-2 Combination Cell proliferation Assay (1) with cobimetinib
Assay type: cell-based
Settings: MiaPaca-2 cell proliferation, read-out: MiaPaca-2 Combo (1) IC50

| Compound | IC50 [nM] |
| --- | --- |
| CC(=O)Nc1cc(-c2cc(-c3cc(NC(=O)c4ccnc(C(F)(F)F)c4)ccc3C)cc(OCCO)n2)ccn1 [Example 1, N-(3-(2′-acetamido-6-(2-hydroxyethoxy)-[2,4′-bipyridin]-4-yl)-4-methylphenyl)-2-(trifluoromethyl)isonicotinamide] | ≤ 100 |
| CC(=O)Nc1cc(-c2cc(-c3cc(NC(=O)c4ccnc(C(F)(F)F)c4)c(F)cc3C)ccn2)ccn1 [Example 2] | ≤ 100 |
| Cc1ccc(NC(=O)c2ccnc(C(F)(F)F)c2)cc1-c1ccnc(-c2ccnc(NC(=O)CC#N)c2)c1 [Example 39, N-(3-(2′-(2-cyanoacetamido)-[2,4′-bipyridin]-4-yl)-4-methylphenyl)-2-(trifluoromethyl)isonicotinamide] | 100 to 500 |
| CC(=O)Nc1cc(-c2cc(-c3cc(NC(=O)c4ccnc(C(F)(F)F)c4)ccc3C)nc(N(C)C)n2)ccn1 [Example 41, N-(3-(6-(2-acetamidopyridin-4-yl)-2-(dimethylamino)pyrimidin-4-yl)-4-methylphenyl)-2-(trifluoromethyl)isonicotinamide] | ≤ 100 |
| Cc1ccc(NC(=O)c2ccnc(C(C)(C)C#N)c2)cc1-c1cncc(-c2ccnc3c2CC(=O)N3)n1 [Example 43] | 100 to 500 |
| CNC(=O)c1cc(-c2cncc(-c3cc(NC(=O)c4ccnc(C(F)(F)F)c4)ccc3C)n2)ccn1 [Example 47] | 100 to 500 |
| CNC(=O)c1cc(-c2cc(-c3cc(NC(=O)c4ccnc(C(F)F)c4)ccc3C)ccn2)ccn1 [Example 48] | ≤ 100 |
| CNC(=O)c1cc(-c2cc(-c3cc(NC(=O)c4ccnc(C(C)(C)C#N)c4)ccc3C)ccn2)ccn1 [Example 50] | ≤ 100 |
| Cc1ccc(NC(=O)c2ccnc(C(F)(F)F)c2)cc1-c1ccnc(-c2ccnc(NC(=O)C3CC3)c2)c1 [Example 54] | ≤ 100 |
| COCC(=O)Nc1cc(-c2cc(-c3cc(NC(=O)c4ccnc(C(C)(C)C#N)c4)ccc3C)ccn2)ccn1 [Example 61] | ≤ 100 |
| Cc1ccc(NC(=O)c2ccnc(C(F)(F)F)c2)cc1-c1cccc(-c2ccnc(NC(=O)CC#N)c2)c1 [Example 62] | 100 to 500 |
| Cc1ccc(NC(=O)c2ccnc(C(C)(C)C#N)c2)cc1-c1ccnc(-c2ccnc(NC(=O)CC#N)c2)c1 [Example 63] | 100 to 500 |
| CCOc1ncc(-c2cc(NC(=O)c3ccnc(C(F)(F)F)c3)ccc2C)cc1-c1ccnc(NC(C)=O)c1 [Example 68] | ≤ 100 |
| CNC(=O)c1cc(-c2cc(-c3cc(C(=O)Nc4ccnc(C(C)(C)C#N)c4)ccc3C)ccn2)ccn1 [Example 74] | ≤ 100 |
| Cc1ccc(NC(=O)c2ccnc(C(C)(C)C#N)c2)cc1-c1cccc(-c2cc(NC(=O)C3CC3)ncn2)c1 [Example 77] | ≤ 100 |
| CNC(=O)c1cc(-c2nccc(-c3cc(NC(=O)c4ccnc(C(C)(C)C#N)c4)ccc3C)n2)ccn1 [Example 78] | ≤ 100 |
| CC(=O)Nc1cc(-c2cccc(-c3cc(NC(=O)c4ccnc(C(C)(C)C#N)c4)ccc3C)c2)ncn1 [Example 79] | ≤ 100 |
| Cc1ccc(NC(=O)c2ccnc(C(F)(F)F)c2)cc1-c1cccc(-c2cc(NC(=O)C3CC3)ncn2)c1 [Example 80] | ≤ 100 |
| CNC(=O)c1cc(-c2cncc(-c3cc(NC(=O)c4ccnc(C(C)(C)C#N)c4)ccc3C)n2)ccn1 [Example 86] | ≤ 100 |
| COCC(=O)Nc1cc(-c2nccc(-c3cc(NC(=O)c4ccnc(C(C)(C)C#N)c4)ccc3C)n2)ccn1 [Example 88] | ≤ 100 |
| CC(=O)Nc1cc(-c2cc(-c3cc(NC(=O)c4ccnc(C(C)(C)C#N)c4)ccc3C)nc(C)n2)ccn1 [Example 89] | ≤ 100 |
| Cc1ccc(NC(=O)c2ccnc(C(C)(C)F)c2)cc1-c1cncc(-c2cc(NC(=O)C3CC3)ncn2)c1 [Example 394] | 1000 to 10000 |
